Data as given in US11066433B2, “Pentaaza macrocyclic ring complexes possessing oral bioavailability” (Galera Labs, LLC, priority 2015, dated 2021).

Test: Oral bioavailability by intraduodenal (id) dosing of minipigs, oil formulations, versus iv parent
Format: in vivo, Gottingen minipig
Settings: for Mini-Pig BioA: id 10 mg/kg, 10% by weight formulation, vs iv 1 mg/kg parent, AUC0-24 h
Method: Compounds were screened for oral bioavailability by injecting the formulated prodrugs directly into the duodenum (intraduodenal or id administration) of the minipig test subjects, thus bypassing the acidic environment of the stomach and thereby eliminating potentially misleading oral bioavailability results that could arise from alteration of the test article drug in the acid environment of the stomach.
The studies were conducted at Xenometrics LLC (Stillwell, Kans.) and the id bioavailability was determined using various axial ligand derivative complexes of GC4419, GC4444, GC4403 and GC4401.
Male Gottingen minipigs (4-5 mo old, 9-12 kg weight) were purchased from Marshall BioResources and housed at Xenometrics. […] The distal end was exteriorized with a reusable accessible hub (see surgical details below). During a recovery period of at least 2 weeks the minipigs were handled daily to acclimate them to the test procedures, i.e., id dosing and blood collections. For each experiment, each minipig received a test article drug dissolved or suspended in an excipient vehicle. […] All dosing experiments were conducted in fasted animals. Food was withdrawn from the minipigs 16 hours before dosing. The minipigs had ad libitum access to water. Dosed minipigs were allowed access to food 6 hour after dosing. The test article was administered at a dose of 10 mg/kg parent drug in 0.1 mL/kg vehicle (e.g., 1.5 mL in 15 kg minipig) as a bolus injection (˜1 minute) via the id cannula. The actual amount of total test article drug administered varied with the formula weight of the prodrug. An equal volume of excipient vehicle was used to flush the cannula after the test article was administered. Approximately 6 hours later, corn oil was used to flush the cannula. After approximately 24 hours post-dose, the catheter was flushed with sterile saline solution and capped. At the following time-points 0.25, 0.5, 1, 2, 4, 8, 24 and 48 hour post-injection, 2 mL blood samples were collected by cranial vena cava puncture (4 mL Sodium heparin Vacutainer, 20 g 1.5″ needle) after the skin surface was wiped with ethanol. The minipig was placed in a sling in a recumbent position without anesthesia for the collection of blood samples. The minipigs were never used more than once per 7 days for experimentation. The blood samples were kept on ice until processed for plasma. Blood samples were centrifuged at 1200×g for ten minutes at 4° C. and plasma samples were transferred to 96 well plate tubes, capped and stored at −20° C. until shipment on dry ice to the analytical laboratory used for measuring the concentration of drug in the plasma. The concentration of the parent manganese pentaaza macrocylic ring complex (independent of the composition of the axial ligands) was measured in plasma using a validated HPLC/MS/MS method that is linear between 50 ng/mL and 20,000 ng/mL.
Maisine 35-1 is chemically defined to be the monoglyceride glyceryl monolinoleate (NF) and was supplied by Gattefosse, SAINT-PRIEST Cedex, France. Labrasol (NF) is chemically defined to be caprylocaproyl polyoxyl-8 glycerides NF and was supplied by Gattefosse, SAINT-PRIEST Cedex, France. Labrafil M 1944 CS is chemically defined to be oleoyl polyoxyl-6 glycerides (NF), and is available from Gattefosse, SAINT-PRIEST Cedex, France. The dosing solutions were all prepared using a four place analytical balance by weighing all components of each formulation so that 10% by weight of each formulation contained the test article drug substance and 90% by weight of the oil used for that formulation.
The bioanalytical method which is used to quantitate the parent Mn(II) macrocyclic ring ligand structure in plasma utilizes HPLC with MS/MS detection and monitors the presence of the monocationic [monoformatoMn(pentaazamacrocycle)]+ complex. […]

Substance: Manganese(II)bis-dodecanoato[(4aS,13aS,17aS,21aS)-1,2,3,4,4a,5,6,12,13,13a,14,15,16,17,17a,18,19,20,21,21a-Eicosahydro-11,7-nitrilo-7H-dibenzo[b,h][1,4,7,10] tetraazacycloheptadecine-κN5, κN13, κN18, κN21, κN22]- [GC4708]
- Mini-Pig BioA (base oil Capmul MCM): 12%

Substance: Manganese(II)bis-propionato[6R-Methyl(4aR,13aR,17aR,21 aR)-1,2,3,4,4a,5,6,12,13,13a,14,15,16,17,17a,18,19,20,21,21a-Eicosahydro-11,7-nitrilo-7H-dibenzo[b,h][1,4,7,10] tetraazacycloheptadecine-κN5, κN13, κN18, κN21, κN22]- [GC4747]
- Mini-Pig BioA (base oil Labrafil M2125 CS): 20%

Substance: Manganese(II)bis-acetato[(4aS,13aS,17aS,21aS)-1,2,3,4,4a,5,6,12,13,13a,14,15,16,17,17a,18,19,20,21,21a-Eicosahydro-11,7-nitrilo-7H-dibenzo[b,h][1,4,7,10] tetraazacycloheptadecine-κN5, κN13, κN18, κN21, κN22]- [GC4701]
- Mini-Pig BioA (base oil Capmul MCM): 15%
- Mini-Pig BioA (base oil Labrafil M2125 CS): 16%
- Mini-Pig BioA (base oil Maisine 35-1): 8%
- Mini-Pig BioA (base oil Peceol): 11%

Substance: Manganese(II)bis-L-phenylglycinato[(4aS,13aS,17aS,21 aS)-1,2,3,4,4a,5,6,12,13,13a, 14,15,16,17,17a,18,19,20,21,21a-Eicosahydro-11,7-nitrilo-7H-dibenzo[b,h][1,4,7,10]tetraazacyclo-heptadecine-κN5, κN13, κN18, κN21, κN22]- [GC4702]
- Mini-Pig BioA (base oil Capmul MCM): 43%
- Mini-Pig BioA (base oil Labrafil M2125 CS): 25%
- Mini-Pig BioA (base oil Miglyol 812 N): 42%
- Mini-Pig BioA (base oil Peceol): 29%
- oral bioavailability, comparison in words (id dosing of minipigs, various oils): much better absorbed

Substance: Manganese(II)bis-propionato[(4aR,13aR,17aR,21 aR)-1,2,3,4,4a,5,6,12,13,13a,14,15,16,17,17a,18,19,20,21,21a-Eicosahydro-11,7-nitrilo-7H-dibenzo[b,h][1,4,7,10] tetraazacycloheptadecine-κN5, κN13, κN18, κN21, κN22]- [GC4748]
- Mini-Pig BioA (base oil Labrafil M2125 CS): 22%

Substance: Manganese(II)bis-propionato[(4aS,13aS,17aS,21aS)-1,2,3,4,4a,5,6,12,13,13a,14,15,16,17,17a,18,19,20,21,21a-Eicosahydro-11,7-nitrilo-7H-dibenzo[b,h][1,4,7,10] tetraaza-cycloheptadecine-κN5, κN13, κN18, κN21, κN22]- [GC4711]
- Mini-Pig BioA (base oil Capmul MCM): 27%
- Mini-Pig BioA (base oil Labrafil M1944 CS): 23%
- Mini-Pig BioA (base oil Labrafil M2125 CS): 44%
- Mini-Pig BioA (base oil Maisine 35-1): 29%
- Mini-Pig BioA (base oil Peceol): 29%

Substance: Manganese(II)bis-L-valinato[(4aS,13aS,17aS,21aS)-1,2,3,4,4a,5,6,12,13,13a,14,15,16,17,17a,18,19,20,21,21a-Eicosahydro-11,7-nitrilo-7H-dibenzo[b,h][1,4,7,10] tetraazacyclo-heptadecine-κN5, κN13, κN18, κN21, κN22]- [GC4746]
- Mini-Pig BioA (base oil Capmul MCM): 13%

Substance: Manganese(II)bis-racemic-phenylglycinato[2S, 21 S-Dimethyl(4aR,13aR,17aR,21 aR)-1,2,3,4,4a,5,6,12,13,13a,14,15,16,17,17a,18,19,20,21,21a-Eicosahydro-11,7-nitrilo-7H-dibenzo[b,h][1,4,7,10] tetraazacycloheptadecine-κN5, κN13, κN18, κN21, κN22]- [GC4715]
- Mini-Pig BioA (base oil Capmul MCM): 36%

Substance: Manganese(II)bis-Benzoato[(4aS,13aS,17aS,21aS)-1,2,3,4,4a,5,6,12,13,13a,14,15,16,17,17a,18,19,20,21,21a-Eicosahydro-11,7-nitrilo-7H-dibenzo[b,h][1,4,7,10] tetraazacycloheptadecine-κN5, κN13, κN18, κN21, κN22]- [GC4712]
- Mini-Pig BioA (base oil Capmul MCM): 24%
- Mini-Pig BioA (base oil Maisine 35-1): 18%
- Mini-Pig BioA (base oil Peceol): 29%

Substance: Manganese(II)bis-phenylglyoxaloto[(4aS,13aS,17aS,21aS)-1,2,3,4,4a,5,6,12,13,13a,14,15,16,17,17a,18,19,20,21,21a-Eicosahydro-11,7-nitrilo-7H-dibenzo[b,h][1,4,7,10]tetraazacyclohepta-decine-κN5, κN13, κN18, κN21, κN22]- [GC4719]
- Mini-Pig BioA (base oil Capmul MCM): 25%
- Mini-Pig BioA (base oil Maisine 35-1): 31%
- Mini-Pig BioA (base oil Peceol): 28%

Substance: Manganese(II)bis-pivaloato[(4aS,13aS,17aS,21aS)-1,2,3,4,4a,5,6,12,13,13a,14,15,16,17,17a,18,19,20,21,21a-Eicosahydro-11,7-nitrilo-7H-dibenzo[b,h][1,4,7,10] tetraazacycloheptadecine-κN5, κN13, κN18, κN21, κN22]- [GC4709]
- Mini-Pig BioA (base oil Capmul MCM): 17%
- Mini-Pig BioA (base oil Labrafil M2125 CS): 22%

Substance: Manganese(II)bis-racemic-phenylglycinato[6R-Methyl(4aR,13aR,17aR,21 aR)-1,2,3,4,4a,5,6,12,13,13a,14,15,16,17,17a,18,19,20,21,21a-Eicosahydro-11,7-nitrilo-7H-dibenzo[b,h][1,4,7,10] tetraazacycloheptadecine-κN5, κN13, κN18, κN21, κN22]- [GC4716]
- Mini-Pig BioA (base oil Capmul MCM): 34%

Substance: Manganese(II)bis-n-Butyrato[(4aS,13aS,17aS,21aS)-1,2,3,4,4a,5,6,12,13,13a,14,15,16,17,17a,18,19,20,21,21a-Eicosahydro-11,7-nitrilo-7H-dibenzo[b,h][1,4,7,10] tetraazacycloheptadecine-κN5, κN13, κN18, κN21, κN22]- [GC4713]
- Mini-Pig BioA (base oil Labrafil M2125 CS): 21%
- Mini-Pig BioA (base oil Peceol): 18%

Substance: Manganese(II)bis-phenylacetato[(4aS,13aS,17aS,21aS)-1,2,3,4,4a,5,6,12,13,13a,14,15,16,17,17a,18,19,20,21,21a-Eicosahydro-11,7-nitrilo-7H-dibenzo[b,h][1,4,7,10] tetraazacyclo-heptadecine-κN5, κN13, κN18, κN21, κN22]- [GC4718]
- Mini-Pig BioA (base oil Capmul MCM): 32%
- Mini-Pig BioA (base oil Maisine 35-1): 28%

Substance: Manganese(II)bis-rac-Mandelato[(4aS,13aS,17aS,21aS)-1,2,3,4,4a,5,6,12,13,13a,14,15,16,17,17a,18,19,20,21,21a-Eicosahydro-11,7-nitrilo-7H-dibenzo[b,h][1,4,7,10] tetraazacycloheptadecine-κN5, κN13, κN18, κN21, κN22]- [GC4706]
- Mini-Pig BioA (base oil Capmul MCM): 28%

Substance: Manganese(II)bis-racemic-phenylglycinato[(4aS,13aS,17aS,21 aS)-1,2,3,4,4a,5,6,12,13,13a,14,15,16,17,17a,18,19,20,21,21a-Eicosahydro-11,7-nitrilo-7H-dibenzo[b,h][1,4,7,10] tetraazacycloheptadecine-κN5, κN13, κN18, κN21, κN22]- [GC4720]
- Mini-Pig BioA (base oil Capmul MCM): 33%
- Mini-Pig BioA (base oil Miglyol 812 N): 32%

Substance: Manganese(II)bis-L-Lactato[(4aS,13aS,17aS,21aS)-1,2,3,4,4a,5,6,12,13,13a,14,15,16,17,17a,18,19,20,21,21a-Eicosahydro-11,7-nitrilo-7H-dibenzo[b,h][1,4,7,10] tetraazacycloheptadecine-κN5, κN13, κN18, κN21, κN22]- [GC4714]
- Mini-Pig BioA (base oil Capmul MCM): 36%

Substance: Manganese(II)bis-cyclohexanebutyrato[(4aS,13aS,17aS,21 aS)-1,2,3,4,4a,5,6,12,13,13a, 14,15,16,17,17a,18,19,20,21,21a-Eicosahydro-11,7-nitrilo-7H-dibenzo[b,h][1,4,7,10]tetraazacyclo-heptadecine-κN5, κN13, κN18, κN21, κN22]- [GC4707]
- Mini-Pig BioA (base oil Capmul MCM): 9%
